# In paper PMC12592502, “Unraveling the mechanisms behind the enhanced efficacy of β-lactam-based sideromycins” (Communications Biology, 2025):
# Like-named read-outs stand apart in the source and are kept apart here.
# What was measured:
# Assay in all cases: Membrane PBP binding assay, competition with Bocillin FL
# PBP1a/1b [1] = target: PBP1a/1b; set-up: species or system E. coli MC4100; conditions: for IC50: E. coli MC4100 membranes, 12.5 μM Bocillin FL
# Description: (§1) Membrane extracts containing PBPs were obtained as described above. Briefly, all species were grown in 1 L of TSB until the OD600 reached 0.9. The washed pellet was incubated with lysozyme (400 μg/mL), DNase (10 μg/mL) RNase(10 μg/mL) and anti-protease cocktail (200 mg/20 mL). Lysis was done with a French press (20,000 psi) and membrane protein were pelleted by ultracentrifugation steps (100,000 × g). The pellet was suspended in a minimal volume (300–500 μL) of KP 0.05 M buffer at pH 7. The protein concentration in the membrane preparations was determined with the Micro BCA TM Protein Assay Kit (Thermo Fisher Scientific, Rockford, IL) using bovine serum albumin as a standard.
# (§2) The PBP binding assay was done as described previously[36],[56],[57]. For each antibiotic concentration tested, a quantity of 25 to 40 μg of membrane preparation was used as the source of PBPs, depending on the species. For the purified PaPBP3, 150 ng was used in the assay. First, increasing concentrations of the test antibiotic was added to the membrane or purified PaPBP3 preparations and incubated for 10 min at 30 °C. The reporter molecule Bocillin FL was then added at 12.5 μM for the membrane PBPs preparations and at 500 nM for the pure PaPBP3 samples for an additional 20 min at 30 °C. All reactions were stopped with the addition of the Laemmli-loading buffer (Bio-Rad) containing fresh β-mercaptoethanol (Sigma). All reactions were then heated at 100°C for 3 min before migration on SDS-polyacrylamide discontinuous gel system (7.5% stacking and 10% separating). Control samples without Bocillin FL were also included to highlight autofluorescent proteins that are not PBPs.
# (§3) To be able to visualize labeled PBPs after electrophoresis, gels were rinsed in water and fixed in a solution of 50% methanol and 7% acetic acid for 30 min. The fluorescent images of gels were obtained with the Typhoon FLA 9500 instrument (GE-Healthcare Bio-Sciences Inc., Baie-d’Urfé, QC, CA) using a 473 nm excitation wavelength. To obtain quantifiable data, the software Quantity One 1D analysis was used (version 4.6.6; Bio-Rad Laboratories, Richmond, CA). The volume (intensity × constant area) of each PBP was measured. […] All IC50 data were obtained from at least two independent PBP binding assays using two different sets of compound concentrations using a linear regression. The PBP profiles were confirmed, and the PBP numbering were determined using published data and individual molecular weights. […] For example, amdinocillin (Sigma) was used for PBP2 identification. […] The IC50 for PBP 2 of P. aeruginosa was measured by including the SDS-PAGE comigrating autofluorescent protein in the background, as done previously.
# PBP4 = target: T1, PBP4 (Escherichia coli, UniProt P24228); set-up: species or system E. coli MC4100
# T1 construct: using bacterial membranes as the source of PBPs; endogenous in cells; host or cells: E. coli MC4100 membrane preparation
# Description: as §1, §2, §3
# PBP1a = target: T2, PBP1a (Pseudomonas aeruginosa, UniProt Q07806)
# T2 construct: using bacterial membranes as the source of PBPs; endogenous in cells; host or cells: P. aeruginosa ATCC 27853 membrane preparation
# Description: as §1, §2, §3
# PBP1a/1b [2] = conditions: K. pneumoniae ATCC 13883 membranes
# Description: as §1, §2, §3
# PBP2 = target: T3, PBP2 (Pseudomonas aeruginosa, UniProt Q9X6V3)
# T3 construct: using bacterial membranes as the source of PBPs; endogenous in cells; host or cells: P. aeruginosa ATCC 27853 membrane preparation
# T3 sequence (Q9X6V3 1-646): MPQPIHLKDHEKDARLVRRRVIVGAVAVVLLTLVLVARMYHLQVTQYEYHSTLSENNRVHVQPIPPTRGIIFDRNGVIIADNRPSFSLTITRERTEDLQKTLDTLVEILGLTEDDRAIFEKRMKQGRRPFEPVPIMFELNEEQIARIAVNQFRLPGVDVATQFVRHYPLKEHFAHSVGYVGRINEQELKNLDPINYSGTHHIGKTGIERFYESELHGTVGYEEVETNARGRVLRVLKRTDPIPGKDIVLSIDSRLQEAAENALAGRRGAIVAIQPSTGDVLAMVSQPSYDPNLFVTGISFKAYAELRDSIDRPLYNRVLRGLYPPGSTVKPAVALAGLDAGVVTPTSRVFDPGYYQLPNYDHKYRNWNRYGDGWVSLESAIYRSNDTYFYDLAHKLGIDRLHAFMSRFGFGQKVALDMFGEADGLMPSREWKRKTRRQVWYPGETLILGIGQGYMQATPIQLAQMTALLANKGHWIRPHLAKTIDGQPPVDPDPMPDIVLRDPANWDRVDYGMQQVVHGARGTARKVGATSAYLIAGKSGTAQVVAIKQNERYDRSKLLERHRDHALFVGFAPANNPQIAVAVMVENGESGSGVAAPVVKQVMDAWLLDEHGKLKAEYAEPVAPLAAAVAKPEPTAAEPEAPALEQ
# Description: as §1, §2, §3
# PBP3 = target: T4, PBP3 (Pseudomonas aeruginosa, UniProt G3XD46); conditions: for IC50 value ratio βL/SID-βL, PBP3: P. aeruginosa ATCC 27853, membrane
# T4 construct: using bacterial membranes as the source of PBPs; endogenous in cells; host or cells: P. aeruginosa ATCC 27853 membrane preparation
# Description: as §1, §2, §3
# [3] = E. coli MC4100 membranes, read-out: IC50 PBP4
# [4] = P. aeruginosa ATCC 27853 membranes, read-out: IC50 PBP1a
# [5] = P. aeruginosa ATCC 27853 membranes, read-out: IC50 PBP2
# [6] = P. aeruginosa ATCC 27853 membranes, read-out: IC50 PBP3
SMILES,IC50 (PBP1a/1b [1]) [µM],IC50 (PBP4; [3]) [µM],IC50 (PBP1a) [µM],IC50 (PBP1a/1b [2]) [µM],IC50 (PBP2) [µM],IC50 (PBP3) [µM],IC50 (PBP1a; [4]) [µM],IC50 (PBP2; [5]) [µM],"IC50 value ratio βL/SID-βL, PBP3 (PBP3)",IC50 (PBP3; [6]) [µM],IC50 (PBP4) [µM],"IC50 value ratio βL/SID-βL, PBP1a/1b (PBP1a/1b [1]; E. coli MC4100)","IC50 (PBP4; read-out: IC50 PBP4, E. coli MC4100 membranes) [µM]"
"CC1(C)S[C@@H]2[C@H](NC(=O)[C@H](N)c3ccccc3)C(=O)N2[C@H]1C(=O)O [AMP, ampicillin, reference compound]",7.22 ± 0.07,8.3 ± 0.8,1.9 ± 1.5,8 ± 1,> 50,0.24 ± 0.08,,,,,,,
"CC1(C)SC2C(NC(=O)C(NC(=O)CN(CCCCNC(=O)c3cccc(O)c3O)C(=O)c3cccc(O)c3O)c3ccccc3)C(=O)N2C1C(=O)O (stereo not drawn) [BAMP, bis-catechol (azotochelin)-ampicillin]",2.4 ± 0.54,> 50,,4.24 ± 0.07,,,1.4 ± 0.7,> 50,1.5,0.16 ± 0.01,,,
"O=C(CN(CCCCNC(=O)c1cccc(O)c1O)C(=O)c1cccc(O)c1O)NC(C(=O)NC1C(=O)N2C(C(=O)O)=C(Cl)CCC12)c1ccccc1 (stereo not drawn) [BLOR, bis-catechol (azotochelin)-loracarbef]",0.55 ± 0.02,8.3 ± 0.5,,0.43 ± 0.17,,,0.58 ± 0.04,4.8 ± 3,> 16,3.2 ± 0.1,,,
"N[C@@H](C(=O)N[C@@H]1C(=O)N2C(C(=O)O)=C(Cl)CS[C@H]12)c1ccccc1 [CEF, cefaclor, reference compound]",34 ± 2,,,7.9 ± 1.5,,,33.9 ± 6.9,> 50,,39 ± 1.5,40.2 ± 8.6,,
"N[C@@H](C(=O)N[C@@H]1C(=O)N2C(C(=O)O)=C(Cl)CC[C@H]12)c1ccccc1 [LOR, loracarbef, reference compound]",42.5 ± 11.8,31.6 ± 9,,4.5 ± 2.1,,,> 50,> 50,,> 50,,,
"O=C(CCC(=O)N(CCCCNC(=O)c1cccc(O)c1O)CCCNC(=O)c1cccc(O)c1O)NCCCCCN(O)C(=O)CCCC(=O)NC(C(=O)NC1C(=O)N2C(C(=O)O)=C(Cl)CSC12)c1ccccc1 (stereo not drawn) [MCEF, mixed ligand bis-catechol-mono-hydroxamate-cefaclor]",0.15 ± 0.01,,,0.35 ± 0.02,,,0.39 ± 0.35,6.74 ± 0.03,,2.01 ± 0.48,,227,8.6 ± 1.3
